≈ marks a conversion by molar mass, not a printed value. Where two headings read alike, the source gives them in different places.
Tests used:
Coxsackie virus B4 = test: microbe, parasite or virus in culture; type: cell-based; conditions: Enterovirus B, B4; Table 3, reference compounds
[1] = test system: Herpes simples virus-2 (G); test: Antiviral activity, Herpes simplex virus-2 (G); type: cell-based; conditions: Human alphaherpesvirus 2; Table 4, reference compounds
Punta Toro virus = test: Antiviral activity, Punta Toro virus; type: cell-based; conditions: Punta Toro virus; Table 3, reference compounds
[2] = test system: Herpes simplex virus-1 TK KOS-ACV^r; test: Antiviral activity, Herpes simplex virus-1 TK KOS-ACVr; type: cell-based; conditions: Human alphaherpesvirus 1, read-out: EC50 Herpes simplex virus-1 TK KOS-ACV^r
[3] = test system: Herpes simplex virus-1 (KOS); test: Antiviral activity, Herpes simplex virus-1 (KOS); type: cell-based; conditions: Human alphaherpesvirus 1; Table 4, reference compounds
Reovirus-1 = test: Antiviral activity, Reovirus-1; type: cell-based; conditions: Table 3, reference compounds
Vaccinia virus = test: microbe, parasite or virus in culture; type: cell-based; conditions: Orthopoxvirus vaccinia, read-out: EC50 Vaccinia virus
[4] = test system: Vesicular stomatitis virus; test: microbe, parasite or virus in culture; type: cell-based; conditions: read-out: EC50 Vesicular stomatitis virus
Sindbis virus = test: Antiviral activity, Sindbis virus; type: cell-based; conditions: Sindbis virus; Table 3, reference compounds
Para-influenza-3 virus = test: Antiviral activity, Para-influenza-3 virus; type: cell-based; conditions: Table 3, reference compounds
HIV-1 = test: microbe, parasite or virus in culture; conditions: Human immunodeficiency virus 1, CCRF-CEM, read-out: EC50 HIV-1
in vitro = conditions: human, CEM cells
Feline Corona virus = test: Activity on feline corona virus in CRFK cells; type: cell-based
[5] = test system: human corona (SARS) virus; test: microbe, parasite or virus in culture; type: cell-based; conditions: Severe acute respiratory syndrome coronavirus, read-out: Human Corona virus EC50
HIV-2 = test: Antiretrovirus assay, HIV-2; conditions: Human immunodeficiency virus 2, read-out: EC50 HIV-2
Influenza A H3N2 subtype = test: Anti-influenza activity in MDCK cells, Influenza A H3N2; type: cell-based; conditions: Influenza A virus, reference compounds
Text: (§1) MDCK cells (Madin Darby canine kidney cells) have been used for the experiments shown in table 5 using standard procedures known in the art.

Influenza A H1N1 subtype = test: Anti-influenza activity in MDCK cells, Influenza A H1N1; type: cell-based; conditions: Influenza A virus, reference compounds
Text: as §1

| Structure (SMILES) | EC50 (Coxsackie virus B4) [µM] | EC50 [1] [µM] | EC50 (Punta Toro virus) [µM] | EC50 [2] [µM] | EC50 [3] [µM] | EC50 (Reovirus-1) [µM] | EC50 (Vaccinia virus) [µM] | EC50 [4] [µM] | EC50 (Sindbis virus) [µM] | EC50 (Para-influenza-3 virus) [µM] | EC50 (HIV-1) [µg/mL] | CC50 (in vitro) [µg/mL] | EC50 (Feline Corona virus) [µg/mL] | EC50 [5] [µg/mL] | melting point [°C] | EC50 (HIV-2) [µg/mL] | EC50 (Influenza A H3N2 subtype; H3N2, MTS, read-out: EC50 Influenza A H3N2 subtype MTS) [µM] | EC50 (Influenza A H3N2 subtype; H3N2, visual CPE, read-out: EC50 Influenza A H3N2 subtype visual CPE score) [µM] | EC50 (Influenza A H1N1 subtype; H1N1, MTS, read-out: EC50 Influenza A H1N1 subtype MTS) [µM] | EC50 (Influenza A H1N1 subtype; H1N1, visual CPE, read-out: EC50 Influenza A H1N1 subtype visual CPE score) [µM] |
| --- | --- | --- | --- | --- | --- | --- | --- | --- | --- | --- | --- | --- | --- | --- | --- | --- | --- | --- | --- | --- |
| O=c1[nH]c(=O)n([C@H]2C[C@H](O)[C@@H](CO)O2)cc1/C=C/Br [Brivudin] | > 250 | 10 | > 250 | 50 | 0.016 | > 250 | 2 | > 250 | > 250 | > 250 |  |  |  |  |  |  |  |  |  |  |
| Cc1cc(C)nc(NCc2c(C)c(CNc3cc(C)cc(C)n3)c(C)c(CNc3cc(C)cc(C)n3)c2C)c1 [Compound 3a, 1,3,5-Tris[(4,6-dimethyl-pyridin-2-yl)aminomethyl]-2,4,6-trimethyl-benzene] |  |  |  |  |  |  |  |  |  |  | > 0.8 | 2.63 ± 0.08 (≈ 5.03 µM) | 0.8 ± 0.6 (≈ 1.53 µM) | 1.3 ± 0.2 (≈ 2.49 µM) | 193 to 195 | > 0.8 |  |  |  |  |
| NC(=O)c1ncn([C@@H]2O[C@H](CO)[C@@H](O)[C@H]2O)n1 [Ribavirin] | > 250 | 150 | 150 | 150 | 50 | 150 | 150 | > 250 | 250 | 250 |  |  |  |  |  |  | 8.9 | 8.9 | 9 | 8.9 |
